Source: patent US8278304B2, “Substituted 4-hydroxypyrimidine-5-carboxamides” (Merck Sharp & Dohme Corp., priority 2008, dated 2012)
Where a name gives a salt, the structure may show the parent alone.

Target: T1, PHD2 (Homo sapiens, UniProt Q9GZT9)
T1 construct: FLAG-tagged full length PHD2 expressed in and purified from baculovirus-infected Sf9 cells; FLAG; made in house; host or cells: baculovirus-infected Sf9 cells
Experiment: PHD2 / HIF-1α peptide hydroxylation assay, time resolved fluorescence (VHL complex detection)
Type: biochemical
Conditions: FLAG-tagged full length PHD2; 0.2 μM 2-oxoglutarate, 0.5 μM HIF-1α peptide; read-out: PHD2 Activity (PHD2 binding activity expressed as IC50 (nM))
How it was run: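 Sf9-expressed FLAG-tagged full-length PHD2 (0.15 μg/ml) preincubated with compound 30 min at room temperature in Tris pH 7.4 buffer with 10 μM ferrous sulfate, 1 mM ascorbate and catalase. Reaction started with 0.2 μM 2-oxoglutarate and 0.5 μM biotinylated HIF-1α peptide (final); hydroxylation detected by time-resolved fluorescence via VHL complex binding.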

T1 sequence (Q9GZT9 whole entry): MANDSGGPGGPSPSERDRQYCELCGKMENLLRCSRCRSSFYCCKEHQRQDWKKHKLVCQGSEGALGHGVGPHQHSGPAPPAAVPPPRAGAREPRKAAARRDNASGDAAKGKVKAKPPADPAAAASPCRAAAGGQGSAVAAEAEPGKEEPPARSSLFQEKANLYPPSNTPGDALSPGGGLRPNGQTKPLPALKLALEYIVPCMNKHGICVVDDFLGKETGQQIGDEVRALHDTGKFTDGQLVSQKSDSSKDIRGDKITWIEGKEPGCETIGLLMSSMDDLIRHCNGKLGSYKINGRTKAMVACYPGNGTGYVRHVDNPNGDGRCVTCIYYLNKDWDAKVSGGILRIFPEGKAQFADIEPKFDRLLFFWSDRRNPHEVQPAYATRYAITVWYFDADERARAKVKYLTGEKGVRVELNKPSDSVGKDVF

Row | SMILES | IC50 [nM]
1 | O=C(NCc1ccc(-c2ccc(F)cc2)nc1)c1cnc(-n2cccn2)nc1O [Example 108, N-{[6-(4-fluorophenyl)pyridin-3-yl]methyl}-4-hydroxy-2-(1H-pyrazol-1-yl)pyrimidine-5-carboxamide] | ≤ 10
2 | O=C(NCc1cnc(-c2ccc(F)cc2)cn1)c1cnc(-n2cccn2)nc1O [Example 109, N-{[5-(4-fluorophenyl)pyrazin-2-yl]methyl}-4-hydroxy-2-(1H-pyrazol-1-yl)pyrimidine-5-carboxamide] | 10 to 100
3 | N#Cc1ccc(CNC(=O)c2cnc(-n3cccn3)nc2O)cn1 [Example 110, N-[(6-cyanopyridin-3-yl)methyl]-4-hydroxy-2-(1H-pyrazol-1-yl)pyrimidine-5-carboxamide] | 10 to 100
4 | COc1ccc(C(NC(=O)c2cnc(-c3cccnn3)nc2O)c2ccc(C#N)nc2)cc1 (centres unmarked) [Example 112, N-[(6-cyanopyridin-3-yl)(4-methoxyphenyl)methyl]-4-hydroxy-2-pyridazin-3-ylpyrimidine-5-carboxamide] | ≤ 10
5 | C[C@H](NC(=O)c1cnc(-n2cccn2)nc1O)c1ccc(C#N)cc1 [Example 113, N-[(1S)-1-(4-cyanophenyl)ethyl]-4-hydroxy-2-(1H-pyrazol-1-yl)pyrimidine-5-carboxamide] | ≤ 10
6 | COc1ccc(C(NC(=O)c2cnc(-c3cccnn3)nc2O)c2ccc(C)nc2)cc1 (centres unmarked) [Example 114, 4-Hydroxy-N-[(4-methoxyphenyl)(6-methylpyridin-3-yl)methyl]-2-pyridazin-3-ylpyrimidine-5-carboxamide] | ≤ 10
7 | COc1ccc(C(NC(=O)c2cnc(-c3cccnn3)nc2O)c2cccc(C)n2)c(OC)c1 (centres unmarked) [Example 115, N-[(2,4-Dimethoxyphenyl)(6-methylpyridin-2-yl)methyl]-4-hydroxy-2-pyridazin-3-ylpyrimidine-5-carboxamide] | ≤ 10
8 | Cc1csc(C(C)NC(=O)c2cnc(-n3cccn3)nc2O)n1 (centres unmarked) [Example 117, 4-hydroxy-N-[1-(4-methyl-1,3-thiazol-2-yl)ethyl]-2-(1H-pyrazol-1-yl)pyrimidine-5-carboxamide hydrochloride] | ≤ 10
9 | CC(NC(=O)c1cnc(-n2cccn2)nc1O)c1ccccn1 (centres unmarked) [Example 118, 4-hydroxy-2-(1H-pyrazol-1-yl)-N-[1-(pyridin-2-yl)ethyl]pyrimidine-5-carboxamide] | 10 to 100
10 | O=C(N[C@H]1CCc2ccccc21)c1cnc(-n2cccn2)nc1O [Example 119, N-[(1S)-2,3-dihydro-1H-inden-1-yl]-4-hydroxy-2-(1H-pyrazol-1-yl)pyrimidine-5-carboxamide] | 10 to 100
11 | O=C(N[C@H](c1ccccc1)[C@@H](O)c1ccccc1)c1cnc(-n2cccn2)nc1O [Example 120, 4-hydroxy-N-[(1R,2S)-2-hydroxy-1,2-diphenylethyl]-2-(1H-pyrazol-1-yl)pyrimidine-5-carboxamide] | ≤ 10
12 | C[C@H](NC(=O)c1cnc(-n2cccn2)nc1O)c1ccc2ccccc2c1 [Example 121, 4-hydroxy-N-[(1S)-1-(naphthalen-2-yl)ethyl]-2-(1H-pyrazol-1-yl)pyrimidine-5-carboxamide] | ≤ 10
13 | O=C(N[C@H](CO)c1ccccc1)c1cnc(-n2cccn2)nc1O [Example 122, 4-hydroxy-N-[(1S)-2-hydroxy-1-phenylethyl]-2-(1H-pyrazol-1-yl)pyrimidine-5-carboxamide] | 10 to 100
14 | O=C(N[C@@H](CO)c1ccccc1)c1cnc(-n2cccn2)nc1O [Example 123, 4-hydroxy-N-[(1R)-2-hydroxy-1-phenylethyl]-2-(1H-pyrazol-1-yl)pyrimidine-5-carboxamide] | ≤ 10
15 | O=C(N[C@@H](C(=O)O)c1ccccc1)c1cnc(-n2cccn2)nc1O [Example 124, (2R)-({[4-hydroxy-2-(1H-pyrazol-1-yl)pyrimidin-5-yl]carbonyl}amino)(phenyl)ethanoic acid] | ≤ 10
16 | O=C(NC(c1ccccc1)c1ccccn1)c1cnc(-n2cccn2)nc1O (centres unmarked) [Example 125, 4-hydroxy-N-[phenyl(pyridin-2-yl)methyl]-2-(1H-pyrazol-1-yl)pyrimidine-5-carboxamide trifluoroacetate (salt)] | ≤ 10
17 | COc1cccc([C@H](C)NC(=O)c2cnc(-n3cccn3)nc2O)c1 [Example 126, 4-hydroxy-N-[(1S)-1-(3-methoxyphenyl)ethyl]-2-(1H-pyrazol-1-yl)pyrimidine-5-carboxamide] | ≤ 10
18 | O=C(N[C@H](c1ccccc1)[C@H](O)c1ccccc1)c1cnc(-n2cccn2)nc1O [Example 127, 4-hydroxy-N-[(1R,2R)-2-hydroxy-1,2-diphenylethyl]-2-(1H-pyrazol-1-yl)pyrimidine-5-carboxamide] | ≤ 10
19 | CC(C)(O)[C@H](NC(=O)c1cnc(-n2cccn2)nc1O)c1ccccc1 [Example 128, 4-hydroxy-N-[(1R)-2-hydroxy-2-methyl-1-phenylpropyl]-2-(1H-pyrazol-1-yl)pyrimidine-5-carboxamide] | ≤ 10

Row | SMILES | IC50 [nM]
20 | C[C@H](NC(=O)c1cnc(-n2cccn2)nc1O)c1ccc(Oc2ccccc2)cc1 [Example 129, 4-hydroxy-N-[(1S)-1-(4-phenoxyphenyl)ethyl]-2-(1H-pyrazol-1-yl)pyrimidine-5-carboxamide] | ≤ 10
21 | O=C(NCc1ccc(C(F)(F)F)cn1)c1cnc(-n2cccn2)nc1O [Example 130, 4-hydroxy-2-(1H-pyrazol-1-yl)-N-{[5-(trifluoromethyl)pyridin-2-yl]methyl}pyrimidine-5-carboxamide] | 10 to 100
22 | CC(C)C(NC(=O)c1cnc(-n2cccn2)nc1O)c1ccccc1 (centres unmarked) [Example 131, 4-hydroxy-N-(2-methyl-1-phenylpropyl)-2-(1H-pyrazol-1-yl)pyrimidine-5-carboxamide] | ≤ 10
23 | C[C@H](NC(=O)c1cnc(-n2cccn2)nc1O)c1ccc2c(c1)OCCO2 [Example 132, N-[(1S)-1-(2,3-dihydro-1,4-benzodioxin-6-yl)ethyl]-4-hydroxy-2-(1H-pyrazol-1-yl)pyrimidine-5-carboxamide] | ≤ 10
24 | CC[C@H](NC(=O)c1cnc(-n2cc(C)cn2)nc1O)c1ccccc1 [Example 133, 4-hydroxy-2-(4-methyl-1H-pyrazol-1-yl)-N-[(1S)-1-phenylpropyl]pyrimidine-5-carboxamide] | ≤ 10
25 | COc1ccc([C@H](C)NC(=O)c2cnc(-n3cc(C)cn3)nc2O)cc1 [Example 134, 4-hydroxy-N-[(1S)-1-(4-methoxyphenyl)ethyl]-2-(4-methyl-1H-pyrazol-1-yl)pyrimidine-5-carboxamide] | ≤ 10
26 | O=C(NC1CCCCC1)c1cnc(-c2cccnn2)nc1O [Example 135, N-cyclohexyl-4-hydroxy-2-(pyridazin-3-yl)pyrimidine-5-carboxamide] | 10 to 100
27 | O=C(NC(c1ccccc1)c1ccccn1)c1cnc(-c2cccnn2)nc1O (centres unmarked) [Example 136, 4-hydroxy-N-[phenyl(pyridin-2-yl)methyl]-2-pyridazin-3-ylpyrimidine-5-carboxamide trifluoroacetate (salt)] | ≤ 10
28 | C[C@H](NC(=O)c1cnc(-c2cccnn2)nc1O)c1ccc(Oc2ccccc2)cc1 [Example 137, 4-hydroxy-N-[(1S)-1-(4-phenoxyphenyl)ethyl]-2-(pyridazin-3-yl)pyrimidine-5-carboxamide] | ≤ 10
29 | O=C(N[C@H](c1ccccc1)[C@@H](O)c1ccccc1)c1cnc(-c2cccnn2)nc1O [Example 138] | ≤ 10
30 | O=C(N[C@H](c1ccccc1)[C@H](O)c1ccccc1)c1cnc(-c2cccnn2)nc1O [Example 139, 4-hydroxy-N-[(1R,2R)-2-hydroxy-1,2-diphenylethyl]-2-(pyridazin-3-yl)pyrimidine-5-carboxamide] | ≤ 10
31 | C[C@H](NC(=O)c1cnc(-c2cccnn2)nc1O)c1ccc2c(c1)OCCO2 [Example 140, N-[(1S)-1-(2,3-dihydro-1,4-benzodioxin-6-yl)ethyl]-4-hydroxy-2-(pyridazin-3-yl)pyrimidine-5-carboxamide] | ≤ 10
32 | CCCC(NC(=O)c1cnc(-n2cccn2)nc1O)c1ccc(-c2ccccc2)cc1 (centres unmarked) [Example 165, N-[1-(biphenyl-4-yl)butyl]-4-hydroxy-2-(1H-pyrazol-1-yl)pyrimidine-5-carboxamide] | ≤ 10
33 | COc1ccc(C(NC(=O)c2cnc(-n3cccn3)nc2O)c2cnccn2)cc1 (centres unmarked) [Example 166, 4-hydroxy-N-[(4-methoxyphenyl)(pyrazin-2-yl)methyl]-2-(1H-pyrazol-1-yl)pyrimidine-5-carboxamide] | ≤ 10
34 | COc1ccc(C(NC(=O)c2cnc(-n3cccn3)nc2O)c2ccc(OC)nc2)cc1 (centres unmarked) [Example 167, 4-hydroxy-N-[(4-methoxyphenyl)(6-methoxypyridin-3-yl)methyl]-2-(1H-pyrazol-1-yl)pyrimidine-5-carboxamide trifluoroacetate (salt)] | ≤ 10
35 | COc1ccc(C(NC(=O)c2cnc(-n3cccn3)nc2O)c2ccc(SC)cc2)cc1 (centres unmarked) [Example 168, 4-hydroxy-N-{(4-methoxyphenyl)[4-(methylsulfanyl)phenyl]methyl}-2-(1H-pyrazol-1-yl)pyrimidine-5-carboxamide] | ≤ 10
36 | COc1ccc(C(NC(=O)c2cnc(-c3cccnn3)nc2O)c2ccc(Cl)nc2)cc1 (centres unmarked) [Example 169, N-[(6-chloropyridin-3-yl)(4-methoxyphenyl)methyl]-4-hydroxy-2-(pyridazin-3-yl)pyrimidin-5-carboxamide] | ≤ 10
37 | COc1ccc(C(NC(=O)c2cnc(-c3cccnn3)nc2O)c2ccc(OC)nc2)cc1 (centres unmarked) [Example 170, 4-hydroxy-N-[(4-methoxyphenyl)(6-methoxypyridin-3-yl)methyl]-2-(pyridazin-3-yl)pyrimidine-5-carboxamide] | ≤ 10
38 | COc1ccc(C(NC(=O)c2cnc(-c3cccnn3)nc2O)c2ccc3ccccc3n2)cc1 (centres unmarked) [Example 171, 4-hydroxy-N-[(4-methoxyphenyl)(quinolin-2-yl)methyl]-2-(pyridazin-3-yl)pyrimidine-5-carboxamide] | ≤ 10
